The target of assay [1] is T1, Plk4 kinase domain (Homo sapiens, UniProt O00444).
T1 construct: Plasmids encoding fragments of Plk4 kinase domain (2-275) with 6xHis-tag were cloned in pET system vectors; made in house; host or cells: E. coli BL21 gold (DE3)
T1 sequence (O00444 2-275): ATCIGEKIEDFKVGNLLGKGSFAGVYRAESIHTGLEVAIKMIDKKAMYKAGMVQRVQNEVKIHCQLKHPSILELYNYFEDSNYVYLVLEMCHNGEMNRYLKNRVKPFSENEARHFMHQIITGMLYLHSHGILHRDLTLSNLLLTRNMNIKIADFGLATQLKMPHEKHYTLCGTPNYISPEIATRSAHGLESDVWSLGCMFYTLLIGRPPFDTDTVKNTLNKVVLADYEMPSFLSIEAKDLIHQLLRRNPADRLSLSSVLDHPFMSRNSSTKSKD
In words: Competition binding assay based on fluorescence polarization (tracer Alexa488-PEG-N-centrinone). The conditions noted are these: for Kd: Alexa488-PEG-N-centrinone 1 nM, Plk4-KD 5 nM; for binding affinity lower (KD higher) than that of unmodified centrinone: ratio of Kd to Kd of centrinone. The source says: Moreover, we substituted the basic acetyl-piperazine nitrogen in compounds (1 and 2a) with an acetyl-piperidine, to avoid probe protonation and accumulation in endolysosomal compartments (Figure S1A, B).[23] […] These probes were characterized first in vitro by measuring their fluorogenicity in the presence of the 6xHis-tagged Plk4 kinase domain (KD) (Table 1). […] Next, we measured the binding affinities of the probes to the Plk4 kinase domain via a competition binding assay based on fluorescence polarization. […]
1.3.6 Fluorescence Polarization assay & competition assay […]
plate (Greiner Bio-One). Upon mixture of protein and ligand, the plate was incubated for 30 min at room temperature followed by fluorescence polarization measurements by a plate reader (TECAN Spark® 20M) using 485 nm as excitation wavelength (bandwidth 20 nm) and 535 nm as emission wavelength (bandwidth 25 nm). The obtained fluorescence polarization values from each well were plotted against the concentration of the protein. The apparent Kd values were obtained by fitting the curve to the […]
FP = FP + FPmax ― FPmin (C + C + K ― (C + C + K )2 ― 4C C ) […]
protein should be around the Kd of the tracer to ensure that enough free protein that can bind the […]
competitor, and enough signal change coming from binding and unbinding of the tracer. The solution of the tracer and protein was titrated with increasing amounts of competitors, in our case SiR650- and […]
The mixture was then incubated for an hour at room temperature and the FP was then measured on a plate reader using the same conditions as mentioned before. From the obtained FP values, we have calculated the amount of free protein in the solution for each concentration of competitor using the equation of the single-site binding isotherm:
Pfree = Kd_tracer FP ― FP
Where Pfree is concentration of free protein, Kd tracer represents the previously determined binding affinity

Assay [2] concerns HeLa cells expressing Centrin1-GFP. The assay is described as follows: Centriole phenotypic scoring (number of Centrin1-GFP foci). The class given is cell-based, human. An excerpt: Having established that SiR595-centrinone (2d) can successfully label overexpressed Plk4, we wanted to investigate whether it also marks endogenous Plk4. […] In contrast, partial Plk4 inhibition leads to increased levels of centriolar Plk4 due to partial interference with protein degradation mediated by autophosphorylation, overall resulting in centriole overamplification.[8] Therefore, both under-duplication and overamplification of centrioles can be used as a proxy for SiR595-centrinone binding to endogenous Plk4. […] We conclude that the failure of SiR595-centrinone (2d) to detect endogenous Plk4 is due to the low binding affinity of the probe in combination with low protein levels. […] In the second step, the Plk4-bound molecule is specifically reacted with an appropriate fluorogenic tetrazine dye.[27]−[33] This strategy was applied previously successfully to label various protein targets in live and fixed cells,[30],[32],[34]−[38] and we reasoned that a smaller and potentially more permeable Cen-TCO (3) derivative would likewise enable more efficient labeling of endogenous Plk4.
We conjugated trans-cyclooctene to the previously obtained compound (4) to obtain Cen-TCO (3) using the synthetic route outlined in Scheme S2. The resulting Cen-TCO (3) reacted with an appropriate tetrazine, such as SiR650-TetH (4a) (Figure S4A). The reaction was followed by LC-MS, and the data confirmed quantitative conversion of Cen-TCO (3) to the appropriate cycloaddition product Cen-Click-SiR650 (Figure S4A, D). […] To assess the phenotype caused by Cen-TCO (3), we incubated HeLa cells expressing Centrin1-GFP with different concentrations of Cen-TCO (3) for 24 h, followed by scoring of Centrin1-GFP foci numbers (Figure S5B). […] Despite the high unspecific background signal, a clear focus could be detected at centrioles (Figure 4B). […] The fwhm of the circular signal in this case was 368 ± 26 (N = 6) (Figure S7B), which corresponds to the size measured with overexpressed GFP-Plk4(K41M) (see Figure 3D), and approximately that of the torus region surrounding the centriole.[40] […]

For orientation: Kd means the equilibrium constant for the complex coming apart. Take `COc1c(Nc2cc(C)[nH]n2)nc(Sc2ccc(S(=O)(=O)Cc3cccc([N+](=O)[O-])c3F)cc2F)nc1N1CCC(CC(=O)NCCNC(=O)c2ccc(C(=O)O)c(C3=C4C=CC(=N)C=C4[Si](C)(C)c4cc(N)ccc43)c2)CC1` [2d]: in assay [1], binding was put at a Kd of 0.038 ± 0.005 µM and the “binding affinity lower (KD higher) than that of unmodified centrinone” value is given as 42 fold. The “effect on centriole numbers” value in assay [2] (2 μM, 24 h) is “did not affect centriole numbers”.
Take `COc1c(Nc2cc(C)[nH]n2)nc(Sc2ccc(S(=O)(=O)Cc3cccc([N+](=O)[O-])c3F)cc2F)nc1N1CCC(CC(=O)NCCNC(=O)OC2CC/C=C/CCC2)CC1` (stereo not shown) [compound 3]: in assay [1], binding was put at a Kd of 0.008 ± 0.001 µM and the “binding affinity lower (KD higher) than that of unmodified centrinone” value is ~9 fold. The “binding affinity higher than that of SiR595-centrinone (2d)” value in assay [1] (ratio of Kd values) is on record as 4 fold. In addition, the “concentration causing the centriole under-duplication phenotype” value in assay [2] (24 h incubation, scoring of Centrin1-GFP foci) is ≥ 500 nM.

These data come from paper PMC10466336, “Chemical Probe for Imaging of Polo-like Kinase 4 and Centrioles” (JACS Au, 2023).
